Experiment [1] concerns the target T1, 5-HT3AB receptor, 5-HT3B subunit E170A (Homo sapiens, UniProt P46098).
T1 construct: variant as stated: E170A
T1 sequence (P46098 24-478): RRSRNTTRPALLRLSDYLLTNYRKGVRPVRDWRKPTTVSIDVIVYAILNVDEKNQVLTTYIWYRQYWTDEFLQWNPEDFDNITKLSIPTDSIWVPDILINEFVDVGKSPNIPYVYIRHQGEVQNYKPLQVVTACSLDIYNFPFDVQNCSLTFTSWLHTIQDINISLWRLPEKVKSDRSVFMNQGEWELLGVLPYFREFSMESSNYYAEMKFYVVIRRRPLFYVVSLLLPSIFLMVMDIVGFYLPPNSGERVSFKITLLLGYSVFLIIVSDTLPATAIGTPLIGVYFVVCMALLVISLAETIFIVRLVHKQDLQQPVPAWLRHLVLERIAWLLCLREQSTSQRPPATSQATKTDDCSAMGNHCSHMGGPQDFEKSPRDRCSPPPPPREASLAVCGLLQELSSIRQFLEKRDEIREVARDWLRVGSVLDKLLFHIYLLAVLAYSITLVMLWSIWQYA
T1 sequence (O95264 22-441 partner): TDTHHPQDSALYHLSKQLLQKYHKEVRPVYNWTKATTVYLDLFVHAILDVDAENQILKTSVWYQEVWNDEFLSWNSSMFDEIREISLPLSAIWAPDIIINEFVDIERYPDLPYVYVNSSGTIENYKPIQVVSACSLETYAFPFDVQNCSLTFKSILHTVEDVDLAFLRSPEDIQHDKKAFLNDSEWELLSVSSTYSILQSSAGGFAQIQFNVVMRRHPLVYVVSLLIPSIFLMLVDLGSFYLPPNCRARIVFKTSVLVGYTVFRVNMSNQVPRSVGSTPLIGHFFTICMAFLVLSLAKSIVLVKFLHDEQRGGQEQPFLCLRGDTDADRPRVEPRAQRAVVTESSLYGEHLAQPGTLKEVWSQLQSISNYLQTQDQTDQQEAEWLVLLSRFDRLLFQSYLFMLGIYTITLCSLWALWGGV
Nature of the experiment: FlexStation membrane potential dye functional assay, HEK293 cells. The experiment is classed as cell-based.
Description: Human embryonic kidney (HEK) 293 cells were cultured on 90 mm tissue culture plates at 37 °C and 7% CO2 in a humidified atmosphere. They were grown in DMEM:F12 (Dulbecco’s Modified Eagle’s Medium/Nutrient Mix F12 (1:1)) with GlutaMAX I™ containing 10% fetal calf serum and passaged when confluent. […] For FlexStation assays, transfected cells were plated on 96-well plates and incubated 1–2 days before assay.
Mutagenesis reactions were performed using either the Kunkel method or the QuikChange kit (Agilent Technologies Inc., CA, USA) using human 5-HT3A or 5-HT3B receptor subunit cDNA (accession numbers: P46098 and O95264) in pcDNA3.1 (Invitrogen, Paisley, UK). Subunit numberings have been altered to the aligning residues in the mouse 5-HT3A subunit for ease of comparison with other studies.
Fluorometric studies were undertaken using a FlexStation® (Molecular Devices, Sunnyvale, CA, USA) as previously described.[11]
Fluorescence was measured every 2 s for 200 s. […] Concentration–response and inhibition curves were obtained for each mutant, and the fluorescence values were normalized to the maximal response.

For another experiment, the target named is T2, 5-HT3A receptor D165K (Homo sapiens, UniProt P46098, D160K).
T2 sequence (P46098 24-478 D160K): T1 sequence (P46098 24-478) with D137K
The experiment can be described thus: radioligand saturation binding, transfected HEK293 membranes. To be noted: [3H]-palonosetron saturation, 5-HT3A D165K, 4 °C, 24 h.

Another experiment has as its target T3, WT 5-HT3AB receptor (Homo sapiens, UniProt O95264+P46098).
T3 sequence (P46098 24-478): T1 sequence (P46098 24-478)
T3 sequence (O95264 22-441): T1 sequence (O95264 22-441 partner)
The description is as above. The note with it: [3H]-palonosetron saturation, 4 °C, 24 h.

Experiment [2] addresses T4, 5-HT3AB receptor, 5-HT3B subunit I183A (Homo sapiens, UniProt O95264+P46098, I176A).
T4 sequence (P46098 24-478): T1 sequence (P46098 24-478)
T4 sequence (O95264 22-441 I176A): T1 sequence (O95264 22-441 partner) with I155A
Described as above. The note with it: [3H]-palonosetron saturation, 5-HT3AB with 5-HT3B I183A, 4 °C, 24 h.
Description: (§1) Human embryonic kidney (HEK) 293 cells were cultured on 90 mm tissue culture plates at 37 °C and 7% CO2 in a humidified atmosphere. They were grown in DMEM:F12 (Dulbecco’s Modified Eagle’s Medium/Nutrient Mix F12 (1:1)) with GlutaMAX I™ containing 10% fetal calf serum and passaged when confluent. For radioligand binding studies, cells in 90 mm dishes were transfected at 60–70% confluency using polyethyleneimine and incubated for 3–4 days before use. For FlexStation assays, transfected cells were plated on 96-well plates and incubated 1–2 days before assay. […]
(§2) Eight-point binding assays were performed to produce saturation binding curves. […] Radioactive counts were measured using a Beckman LS6000SC liquid scintillation counter (Fullerton, California, USA).
(§3) Data were analyzed by iterative curve fitting using GraphPad Prism v5 (San Diego, CA) according to the following equation: B=Bmax[L]^n/kdn+[L]^n where B is the amount of bound radioligand, Bmax is the maximum specific binding at equilibrium, [L] is the concentration of radioligand, Kd is the equilibrium dissociation constant of the radioligand, and n is the Hill coefficient.

The target of experiment [3] is T5, 5-HT3AB receptor, 5-HT3B subunit W90C (Homo sapiens, UniProt O95264+P46098, W83C).
T5 sequence (P46098 24-478): T1 sequence (P46098 24-478)
T5 sequence (O95264 22-441 W83C): T1 sequence (O95264 22-441 partner) with W62C
The description is as above. The note with it: [3H]-palonosetron saturation, 5-HT3AB with 5-HT3B W90C, 4 °C, 24 h.
Description: as §1, §2, §3

Numbering of substitutions follows the chain as printed.

One may read the IC50 as the concentration needed to halve the response being measured. Read a high IC50 as a need for much substance. Broadly, the Kd is the constant that tells how readily two partners part at equilibrium.

Description for 5-HT3A receptor D165K: as §1, §2, §3
Description for WT 5-HT3AB receptor: as §1, §2, §3

Compound `O=C1c2cccc3c2[C@H](CCC3)CN1[C@@H]1CN2CCC1CC2` [Palonosetron] registered an IC50 in experiment [1] of 0.36 ± 0.11 nM. Also, the Kd on 5-HT3A receptor D165K came out at 0.36 ± 0.02 nM; at WT 5-HT3AB receptor, 0.18 ± 0.02 nM; in experiment [2], 0.23 ± 0.12 nM; in experiment [3], 0.34 ± 0.06 nM.
